Test results reported in ChEMBL document CHEMBL3817788, “Natural cholinesterase inhibitors from Myristica cinnamomea King” (Bioorg Med Chem Lett, 2016).

Legend:
[1] = Inhibition of Saccharomyces cerevisiae alpha-glucosidase using p-nitrophenyl-alpha-D-glucopyranoside as substrate preincubated for 10 mins followed by substrate addition measured after 10 mins
Acetylcholinesterase [2] = target: T1, Acetylcholinesterase (Homo sapiens, UniProt P22303); assay: Inhibition of AChE (unknown origin) using acetylthiocholine iodide as substrate incubated for 30 mins by Ellman's microplate assay
T1 sequence (P22303 whole entry): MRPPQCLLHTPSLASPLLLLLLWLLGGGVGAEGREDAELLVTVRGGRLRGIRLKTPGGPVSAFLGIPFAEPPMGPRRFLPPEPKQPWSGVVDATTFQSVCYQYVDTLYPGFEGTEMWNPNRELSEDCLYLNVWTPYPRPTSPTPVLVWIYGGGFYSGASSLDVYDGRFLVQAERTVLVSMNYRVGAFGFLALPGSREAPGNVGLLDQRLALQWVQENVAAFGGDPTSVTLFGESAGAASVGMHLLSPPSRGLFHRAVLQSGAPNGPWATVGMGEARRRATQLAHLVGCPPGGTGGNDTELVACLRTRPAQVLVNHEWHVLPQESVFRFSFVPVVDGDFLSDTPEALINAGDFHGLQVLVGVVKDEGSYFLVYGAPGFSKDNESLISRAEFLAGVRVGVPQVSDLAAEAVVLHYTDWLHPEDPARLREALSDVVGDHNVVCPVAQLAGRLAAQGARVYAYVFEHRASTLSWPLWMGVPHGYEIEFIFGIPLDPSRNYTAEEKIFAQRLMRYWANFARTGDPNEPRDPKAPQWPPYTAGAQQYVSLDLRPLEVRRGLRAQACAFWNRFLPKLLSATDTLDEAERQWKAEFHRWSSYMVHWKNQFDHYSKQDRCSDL

[3] = Selectivity index, ratio of IC50 for AChE (unknown origin) to IC50 for equine serum BChE
Acetylcholinesterase [4] = assay: Inhibition of AChE (unknown origin) at 100 ug/ml using acetylthiocholine iodide as substrate incubated for 30 mins by Ellman's microplate assay; conditions: Homo sapiens
[5] = target: Cholinesterase (Equus caballus) (UniProt P81908); assay: Inhibition of equine serum BChE at 100 ug/ml using S-butyrylthiocholine chloride as substrate incubated for 30 mins by Ellman's microplate assay
Sequence of Cholinesterase (Equus caballus) (P81908 whole entry): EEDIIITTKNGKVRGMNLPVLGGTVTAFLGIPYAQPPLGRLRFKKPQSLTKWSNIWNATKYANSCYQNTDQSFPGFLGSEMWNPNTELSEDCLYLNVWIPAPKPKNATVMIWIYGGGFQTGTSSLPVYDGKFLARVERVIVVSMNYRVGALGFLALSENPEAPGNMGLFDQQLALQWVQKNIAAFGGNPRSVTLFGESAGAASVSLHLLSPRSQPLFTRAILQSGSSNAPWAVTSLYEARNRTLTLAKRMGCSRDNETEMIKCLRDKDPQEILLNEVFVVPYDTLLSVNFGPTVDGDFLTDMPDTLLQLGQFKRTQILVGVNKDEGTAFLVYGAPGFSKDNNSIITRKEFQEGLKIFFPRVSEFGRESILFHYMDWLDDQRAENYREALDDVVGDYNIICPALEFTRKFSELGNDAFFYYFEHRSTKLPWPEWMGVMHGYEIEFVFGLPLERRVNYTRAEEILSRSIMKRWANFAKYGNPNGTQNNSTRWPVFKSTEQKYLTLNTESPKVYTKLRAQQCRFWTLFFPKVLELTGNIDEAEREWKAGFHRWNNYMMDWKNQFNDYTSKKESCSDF

Cholinesterase [6] = target: T2, Cholinesterase (Equus caballus, UniProt P81908); assay: Inhibition of equine serum BChE using S-butyrylthiocholine chloride as substrate incubated for 30 mins by Ellman's microplate assay
T2 sequence (P81908 whole entry): as above

[7] = Selectivity index, ratio of IC50 for equine serum BChE to IC50 for AChE (unknown origin)
Cholinesterase [8] = target: T2, Cholinesterase; assay: Mixed inhibition of equine serum BChE using S-butyrylthiocholine chloride as substrate incubated for 30 mins by Lineweaver-Burk plot analysis
Acetylcholinesterase [9] = target: T1, Acetylcholinesterase; assay: Mixed inhibition of AChE (unknown origin) using acetylthiocholine iodide as substrate incubated for 30 mins by Lineweaver-Burk plot analysis

Row | SMILES | IC50 [1] | IC50 (Acetylcholinesterase [2]) | Ratio IC50 [3] | inhibition (Acetylcholinesterase [4]) | inhibition [5] | IC50 (Cholinesterase [6]) | Ratio IC50 [7] | Ki (Cholinesterase [8]) | Ki (Acetylcholinesterase [9])
1 | O=C(CCCCCCCCc1cc(O)c(O)cc1-c1ccc(O)c(C(=O)CCCCCCCCc2ccccc2)c1O)c1c(O)cccc1O | 5.05 µM | – | – | – | – | – | – | – | –
2 | O=C1CC(CCCCCCc2ccc(O)cc2)Oc2cccc(O)c21 (centres undefined) | 359 µM | – | – | – | – | – | – | – | –
3 | O=C(CCCCCCCCc1ccc(O)c(O)c1)c1c(O)ccc(C(CCCCCCCCc2ccc(O)c(O)c2)c2c(O)cccc2O)c1O (centres undefined) | – | 12.7 µM | 1.2 | 75.4% | 81.1% | 10.5 µM | 0.83 | – | –
4 | O=C(CCCCCCCCc1ccc(O)c(O)c1)c1c(O)ccc(C(CCCCCCCCc2ccc(O)cc2)c2c(O)cccc2O)c1O (centres undefined) | – | 30.7 µM | 2.45 | 91.5% | 86.7% | 12.5 µM | 0.41 | – | –
5 | O=C(CCCCCCCCc1ccc(O)cc1)c1c(O)cc(O)cc1O | – | 6.44 µM | 0.97 | 99.4% | 86.8% | 6.65 µM | 1.03 | – | –
6 | O=C(O)CCCCCCCCc1ccc(O)cc1 | – | – | – | 45.1% | 49% | – | – | – | –
7 | O=C(CCCCCCCCc1ccccc1)c1c(O)cccc1O [MALABARICONE A] | – | 1.31 µM | 0.04 | 97.4% | 69.5% | 39.2 µM | 33 | – | –
8 | O=C(CCCCCCCCc1ccc(O)cc1)c1c(O)cccc1O [MALABARICONE B] | – | 1.84 µM | 1.05 | 95.9% | 87.3% | 1.76 µM | 0.96 | 0.56 µM | 4.33 µM
9 | O=C(CCCCCCCCc1ccc(O)c(O)c1)c1c(O)cccc1O [MALABARICONE C] | – | 1.94 µM | 0.69 | 97.1% | 94.1% | 2.8 µM | 1.44 | 11.5 µM | 5.86 µM
